Target: T1, Human M4 (Homo sapiens, UniProt P08173)
T1 construct: expressed in transfected cells
T1 sequence (P08173 1-479): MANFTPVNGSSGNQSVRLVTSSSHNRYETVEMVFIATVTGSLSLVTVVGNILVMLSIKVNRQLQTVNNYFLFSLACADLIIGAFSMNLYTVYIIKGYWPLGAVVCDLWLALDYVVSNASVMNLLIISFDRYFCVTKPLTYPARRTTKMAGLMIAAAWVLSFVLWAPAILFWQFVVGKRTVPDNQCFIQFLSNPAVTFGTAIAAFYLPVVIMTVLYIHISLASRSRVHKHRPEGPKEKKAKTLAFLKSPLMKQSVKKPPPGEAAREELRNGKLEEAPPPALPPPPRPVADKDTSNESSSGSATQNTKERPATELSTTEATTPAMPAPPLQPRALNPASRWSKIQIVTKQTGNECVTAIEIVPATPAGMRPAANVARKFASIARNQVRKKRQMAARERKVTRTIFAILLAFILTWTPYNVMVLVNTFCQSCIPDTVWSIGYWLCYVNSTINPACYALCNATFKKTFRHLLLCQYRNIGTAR
Test: mAChR M4 cell-based functional assay (calcium flux, PAM mode)
Settings: hM4-Gqi5 CHO-K1 cells; for Emax at 30 µM: CHO-K1, % ACh maximum at 30 μM; for EC50: concentration-dependent increase in the EC20 acetylcholine response
Experimental: Human and rat M4 cDNAs, along with the chimeric G protein Gqi5, were transfected into Chinese hamster ovary (CHO-K1) cells purchased from the American Type Culture Collection using Lipofectamine2000. hM4-Gqi5 cells were grown in Ham's F-12 medium containing 10% heat-inactivated fetal bovine serum (FBS), 20 mM HEPES, 50 μg/mL G418 sulfate, and 500 μg/mL Hygromycin B. rM4-Gqi5 cells were grown in DMEM containing 10% heat-inactivated FBS, 20 mM HEPES, 400 μg/mL G418 sulfate, and 500 μg/mL Hygromycin B.
For high throughput measurement of agonist-evoked increases in intracellular calcium, CHO-K1 cells stably expressing muscarinic receptors were plated in growth medium lacking G418 and hygromycin at 15,000 cells/20 μL/well in Greiner 384-well black-walled, tissue culture (TC)-treated, clear-bottom plates (VWR). Cells were incubated overnight at 37° C. and 5% CO2. The next day, cells were washed using an ELX 405 (BioTek) with assay buffer; the final volume was then aspirated to 20 μL. Next, 20 μL of a 2.3 μM stock of Fluo-4/acetoxymethyl ester (Invitrogen, Carlsbad, CA), prepared as a 2.3 mM stock in DMSO and mixed in a 1:1 ratio with 10% (w/v) Pluronic F-127 and diluted in assay buffer, was added to the wells and the cell plates were incubated for 50 min at 37° C. and 5% CO2. Dye was removed by washing with the ELX 405 and the final volume was aspirated to 20 μL. Compound master plates were formatted in an 11 point concentration-response curve (CRC) format (1:3 dilutions) in 100% DMSO with a starting concentration of 10 mM using a BRAVO liquid handler (Agilent). Test compound CRCs were then transferred to daughter plates (240 nL) using the Echo acoustic plate reformatter (Labcyte, Sunnyvale, CA) and then diluted into assay buffer (40 μL) to a 2× stock using a Thermo Fisher Combi (Thermo Fisher Scientific, Waltham, MA).
Calcium flux was measured using the Functional Drug Screening System (FDSS) 6000 or 7000 (Hamamatsu Corporation, Tokyo, Japan) as an increase in the fluorescent static ratio. Compounds were applied to cells (20 μL, 2×) using the automated system of the FDSS at 2-4 seconds into the protocol and the data were collected at 1 Hz. At 144 seconds, 10 μL of an EC20 concentration of the muscarinic receptor agonist acetylcholine was added (5×), followed by the addition of 12 μL of an EC80 concentration of acetylcholine at the 230 second time point (5×). Agonist activity was analyzed as a concentration-dependent increase in calcium mobilization upon compound addition. Positive allosteric modulator activity was analyzed as a concentration-dependent increase in the EC20 acetylcholine response. Antagonist activity was analyzed as a concentration-dependent decrease in the EC80 acetylcholine response. Concentration-response curves were generated using a four-parameter logistical equation in XLFit curve fitting software (IDBS, Bridgewater, NJ) for Excel (Microsoft, Redmond, WA) or Prism (GraphPad Software, Inc., San Diego, CA).
Compounds were synthesized as described above. Activity (EC50 and Emax) was determined in the mAChR M4 cell-based functional assay as described above and the data are shown in Table 2. The compound number corresponds to the compound numbers used in Examples 1 to 11 and Tables 1.

| Emax at 30 µM | EC50 | Compound |
| --- | --- | --- |
| 111% | 0.115 µM | [2H]C1(Oc2ccc3c(c2)OC([2H])([2H])C([2H])([2H])O3)CCN(c2nn3c(=O)ccnc3cc2C)CC1 [Compound 39, 7-(4-((2,3-dihydrobenzo[b][1,4]dioxin-6-yl-2,2,3,3-d4)oxy)piperidin-1-yl-4-d)-8-methyl-4H-pyrimido[1,2-b]pyridazin-4-one] |
| 118% | 0.06 µM | [2H]C1(Oc2ccc3c(c2)OC([2H])([2H])C([2H])([2H])O3)CCN(c2nn3c(=O)cc(C)nc3cc2C)CC1 [Compound 40, 7-(4-((2,3-dihydrobenzo[b][1,4]dioxin-6-yl-2,2,3,3-d4)oxy)piperidin-1-yl-4-d)-2,8-dimethyl-4H-pyrimido[1,2-b]pyridazin-4-one] |
| 114% | 0.159 µM | [2H]C1([2H])Oc2ccc(O[C@@H]3CCN(c4nn5c(=O)ccnc5cc4C)C[C@H]3F)cc2OC1([2H])[2H] [Compound 41, 7-((3R,4R)-4-((2,3-dihydrobenzo[b][1,4]dioxin-6-yl-2,2,3,3-d4)oxy)-3-fluoropiperidin-1-yl)-8-methyl-4H-pyrimido[1,2-b]pyridazin-4-one] |
| 105% | 0.052 µM | [2H]C1([2H])Oc2ccc(O[C@H]3CCN(c4nn5c(=O)ccnc5cc4C)C[C@@H]3F)cc2OC1([2H])[2H] [Compound 42, 7-((3S,4S)-4-((2,3-dihydrobenzo[b][1,4]dioxin-6-yl-2,2,3,3-d4)oxy)-3-fluoropiperidin-1-yl)-8-methyl-4H-pyrimido[1,2-b]pyridazin-4-one] |

Second part, the compound before the results:

| Compound | Emax at 30 µM | EC50 |
| --- | --- | --- |
| [2H]C1([2H])Oc2ccc(OC3CCN(c4nn5c(=O)c(N6CCC6)cnc5cc4C)CC3)cc2OC1([2H])[2H] [Compound 35, 3-(azetidin-1-yl)-7-(4-((2,3-dihydrobenzo[b][1,4]dioxin-6-yl-2,2,3,3-d4)oxy)piperidin-1-yl)-8-methyl-4H-pyrimido[1,2-b]pyridazin-4-one] | 114% | 0.153 µM |
| Cc1cc2nc(C)c(F)c(=O)n2nc1N1CC[C@@H](Oc2ccc3c(c2)OCCO3)[C@H](F)C1 [Compound 36, 7-((3R,4R)-4-((2,3-dihydrobenzo[b][1,4]dioxin-6-yl)oxy)-3-fluoropiperidin-1-yl)-3-fluoro-2,8-dimethyl-4H-pyrimido[1,2-b]pyridazin-4-one] | 116% | 0.04 µM |
| Cc1cc2nc(C)c(F)c(=O)n2nc1N1CC[C@H](Oc2ccc3c(c2)OCCO3)[C@@H](F)C1 [Compound 37, 7-((3S,4S)-4-((2,3-dihydrobenzo[b][1,4]dioxin-6-yl)oxy)-3-fluoropiperidin-1-yl)-3-fluoro-2,8-dimethyl-4H-pyrimido[1,2-b]pyridazin-4-one] | 105% | 0.134 µM |
| [2H]C1([2H])Oc2ccc(O[C@H]3CCN(c4nn5c(=O)c(F)c(C)nc5cc4C)C[C@@H]3F)cc2OC1([2H])[2H] [Compound 38, 7-((3S,4S)-4-((2,3-dihydrobenzo[b][1,4]dioxin-6-yl-2,2,3,3-d4)oxy)-3-fluoropiperidin-1-yl)-3-fluoro-2,8-dimethyl-4H-pyrimido[1,2-b]pyridazin-4-one] | 107% | 0.211 µM |
| Cc1cc2nccc(=O)n2nc1N1CC[C@H](Oc2ccc3c(c2)OCCO3)[C@H](F)C1 [Compound 43, 7-((3R,4S)-4-((2,3-dihydrobenzo[b][1,4]dioxin-6-yl)oxy)-3-fluoropiperidin-1-yl)-8-methyl-4H-pyrimido[1,2-b]pyridazin-4-one] | 69% | 0.171 µM |
| Cc1cc(=O)n2nc(N3CC[C@H](Oc4ccc5c(c4)OCCO5)[C@H](F)C3)c(C)cc2n1 [Compound 44, 7-((3R,4S)-4-((2,3-dihydrobenzo[b][1,4]dioxin-6-yl)oxy)-3-fluoropiperidin-1-yl)-2,8-dimethyl-4H-pyrimido[1,2-b]pyridazin-4-one] | 79% | 0.224 µM |

— patent publication US11884676B2, “Substituted pyrimido[1,2-b]pyridazines as positive allosteric modulators of the muscarinic acetylcholine receptor M4” (Vanderbilt University, priority 2020, dated 2024)
